US20130189714A1, “METHOD FOR THE DETECTION AND/OR QUANTIFICATION OF THE INTERACTION OF PLATELETS WITH INTERACTION PARTNERS” (SANOFI, priority 2010, published 2013)
Residues, ends and D or L forms follow the SMILES beside them.

Columns and labels:
[1] = biological target: T1, interaction of platelets (GPIb) with vWF-A1 domain (Homo sapiens, UniProt P07359); assay: platelet adhesion to wells coated with vWF-A1 (calcein-AM labelled platelets, Acumen laser-scanning cytometry); format: cell-based
T1 construct: it is advantageous to use whole platelets instead of the isolated GpIb protein; host or cells: human platelets from platelet concentrate
T1 sequence (P07359 17-652): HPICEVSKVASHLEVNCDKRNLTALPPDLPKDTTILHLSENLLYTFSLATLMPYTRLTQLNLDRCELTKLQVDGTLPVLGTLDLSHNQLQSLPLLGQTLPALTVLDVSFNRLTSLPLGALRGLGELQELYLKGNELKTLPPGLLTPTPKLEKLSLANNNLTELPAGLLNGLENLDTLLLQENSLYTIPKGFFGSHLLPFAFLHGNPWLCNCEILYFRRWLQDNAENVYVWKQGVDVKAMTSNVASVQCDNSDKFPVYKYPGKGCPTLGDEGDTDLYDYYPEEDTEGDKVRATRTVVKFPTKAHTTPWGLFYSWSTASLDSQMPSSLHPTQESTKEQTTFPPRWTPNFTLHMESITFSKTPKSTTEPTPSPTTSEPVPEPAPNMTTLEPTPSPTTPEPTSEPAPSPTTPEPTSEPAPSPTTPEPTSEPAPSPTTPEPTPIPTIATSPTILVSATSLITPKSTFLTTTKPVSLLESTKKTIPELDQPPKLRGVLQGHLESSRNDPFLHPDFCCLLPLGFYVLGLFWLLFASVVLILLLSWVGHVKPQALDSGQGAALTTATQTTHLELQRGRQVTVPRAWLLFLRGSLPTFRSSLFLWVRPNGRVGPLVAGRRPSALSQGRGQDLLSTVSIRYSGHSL
T1 sequence (P13224 26-206 partner): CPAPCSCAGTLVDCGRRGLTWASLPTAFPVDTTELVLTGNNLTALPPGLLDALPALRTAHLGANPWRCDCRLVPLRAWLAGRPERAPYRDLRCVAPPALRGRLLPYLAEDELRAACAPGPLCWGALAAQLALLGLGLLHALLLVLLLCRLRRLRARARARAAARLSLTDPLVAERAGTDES
T1 sequence (P14770 17-177 partner): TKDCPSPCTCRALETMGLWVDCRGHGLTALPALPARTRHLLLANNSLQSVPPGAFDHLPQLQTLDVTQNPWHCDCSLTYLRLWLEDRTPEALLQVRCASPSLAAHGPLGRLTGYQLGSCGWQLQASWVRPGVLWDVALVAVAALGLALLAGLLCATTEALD
Method: 25 μl of the TBS-vWF-A1-Coating/Blocking-Puffer 1× (containing 15 μg/ml vWF-A1) is added sterile per well using a Multidrop from Labsystems. Plates were incubated and stored minimally overnight up to one week. Storage is at 4 C, sterile and protected against evaporation.
One hour before test substance addition, the wells of the plates were blocked with BSA. Before the wells were washed with 1×TBS-Washbuffer, 60 μl/Well using an ELx405 Microplate Washer (96 wells) from Biotek.
Immediately after (wells should not dry out) the wells were blocked 5% BSA-Fatty acid free 40 μl/Well using a Multidrop from Labsystems. Wells were incubated 1-2 hours until test substances were added.
Sealed plates delivered from test substance management were stored at −20° C. until use. Test substances were dissolved in 100% DMSO at 3 mM. Test substances were diluted in TBS-Adhaesionbuffer 1× till 10 μM final concentration. Diluted test substance were stored at RT and used within hours. HTS occurred in single-point determination.
Surplus of BSA is washed away by washing the wells with 1×TBS-Washbuffer, 60 μl/Well using an ELx405 Microplate Washer (96 wells) from Biotek, followed by the addition of 10 μl test substance solution or high and low control using Cybio robotics. Plates were not allowed to dry out.
LOW-Control: no vWF-A1-Coating, just BSA-treated plates for blocking HIGH-Control: vWF-A1+ Standard (non-toxic GPIb inhibitor) vWF-A1+ and OS-1 10 μM
The total time needed between removing the platelets from the platelet concentrate, as obtained from the German Red Cross and disoensing the platelets into the multiwall plates should be between 45-60 mins.
The bag containing the platelet concentrate, as obtained from the German Red Cross, is removed from the agitation table (see 1.2; cells) and is put in a sterile flow cabinet on an absorbing towel to absorb any spills. The tubing, tube clamps and scissors are sterilized with 70% ethanol in water.
The tubing from the bag with platelet concentrate is clamped and the tubing is cut. The clamp is released and the first ca. 10 ml concentrate that comes out of the bag is discarded. 30 ml concentrate is poured into n 50 ml BD-Falcon tube made of polypropylene.
Next, 2.5 μl PGE-stock (0.5 mg/ml) is added to an empty 12 ml round-bottom tube made of polypropylene (Greiner). To this 5 ml platelet concentrate is added (final concentration of PGE1 is 0.25 μg/ml) and the tube is gently mixed and incubated 5 min at RT. […]

[2] = test system: interaction of platelets with collagen 1 (rat tail); assay: platelet-collagen 1 interaction assay (counter-screen); format: cell-based, human; details: test substances at 10 μM
Method: For this assay essentially the same set up was used as described above for testing the adhesion of platelets onto A1-coated plates.
To coat wells with rat tail collagen1, a stock solution consisting of 200 μg/ml Collagen I (rat tail, SIGMA (C8897)) in 0.01 M acetic acid was prepared. This solution was diluted with 0.01 M acetic acid to 10 μg/ml and 25 μl was added to a 384 well. Plates were incubated overnight at 4 C for binding of collagen1 to the well. One hour before test substance addition, the wells of the plates were blocked with BSA as described above. Also the preparation, labeling and dispension of platelets was as described for vWF-A1. For the platelet adhesion to collagen I, the concentration of MgCl2 was increased to 4 mM and the number of platelets added per well to 50 000 platelets. Using these conditions, the assay was able to detect the interaction of specific inhibitors with good statistical parameters, see FIG. 11.
A set of 6 plates were tested under automated conditions. For all plates a Z′ value above 0.5 was obtained with a S/B of 20 or more.
A training set composed 69 test substances in total was used to validate this assay. […]

CSCC[C@@H]1NC(=O)[C@H](CCCNC(=N)N)NC(=O)[C@H](CCC(=O)O)NC(=O)[C@H]([C@@H](C)O)NC(=O)[C@@H](N)CSSC[C@@H](C(=O)O)NC(=O)[C@H](CC(C)C)NC(=O)[C@H](CC(N)=O)NC(=O)[C@H](Cc2c[nH]cn2)NC(=O)[C@H](CC(C)C)NC(=O)[C@H](C)NC1=O [OS-1] (HELM PEPTIDE1{C.T.E.R.M.A.L.H.N.L.C}$PEPTIDE1,PEPTIDE1,1:R3-11:R3$$$V2.0; N-terminus and C-terminus assumed)
inhibition at 10 µM ([1]; OS-1 at 10 μM, optimized washer settings, FIG. 6): ~90% | inhibition by OS-1 during fully automated run of 30 plates ([1]; all plates of the run, FIG. 9): high inhibition | inhibition of platelet attachment to vWF-A1 (in words) ([1]; optimized washer program, FIG. 6 legend): almost complete inhibition | effect of increasing plate storage times on inhibition ([1]; prolonged storage at room temperature, FIG. 8): almost constant values | inhibition of the platelet interaction with collagen [2]: did not inhibit
